The source of these data is publication PMC2920453 (Chemistry & biology, 2010).

Each structure is given as a SMILES string.

One series has as its system TOV-112D. Kind of series: cells. As to conditions: Homo sapiens, TOV112D, 72 h.
For the next series, the system named is A2.1. Kind of series: cells. Particulars: Homo sapiens, 72 h.
Series [1] has as its system SNU-16. Kind of series: cells. As to conditions: Homo sapiens, SNU-16, 72 h.
The next series deals with wild-type Ba/F3 cells. Kind of series: cells. Particulars: Mus musculus, BaF3, 48 h.
Another series deals with JHH-7. Kind of series: cells. As to conditions: Homo sapiens, JHH7, 72 h.
Another series relates to H520. Kind of series: cells. As to conditions: Homo sapiens, NCI-H520, 72 h.
The subject of series [2] is A2780. Kind of series: Survival pathways immunoblot. Particulars: 200 nM, 6 hours.
The next series concerns FU97. Kind of series: cells. As to conditions: Homo sapiens, Fu97, 72 h.
A further series relates to Hec-1B cells. In words: Endometrial carcinoma cell proliferation. Particulars: wild type FGFR2; 4 days.
Another series relates to RT4. Kind of series: cells. As to conditions: Homo sapiens, RT-4, 72 h.
Series [3] concerns SBC-3. In words: cells. As to conditions: Homo sapiens, SBC-3, 72 h.
The next series relates to VM-CUB1. In words: cells. As to conditions: Homo sapiens, VM-CUB-1, 72 h.
The target in a further series is FLT1 (Homo sapiens, UniProt P17948). In words: Z'-lyte kinase assay. Format: biochemical.
Chain of FLT1 (P17948 27-1338): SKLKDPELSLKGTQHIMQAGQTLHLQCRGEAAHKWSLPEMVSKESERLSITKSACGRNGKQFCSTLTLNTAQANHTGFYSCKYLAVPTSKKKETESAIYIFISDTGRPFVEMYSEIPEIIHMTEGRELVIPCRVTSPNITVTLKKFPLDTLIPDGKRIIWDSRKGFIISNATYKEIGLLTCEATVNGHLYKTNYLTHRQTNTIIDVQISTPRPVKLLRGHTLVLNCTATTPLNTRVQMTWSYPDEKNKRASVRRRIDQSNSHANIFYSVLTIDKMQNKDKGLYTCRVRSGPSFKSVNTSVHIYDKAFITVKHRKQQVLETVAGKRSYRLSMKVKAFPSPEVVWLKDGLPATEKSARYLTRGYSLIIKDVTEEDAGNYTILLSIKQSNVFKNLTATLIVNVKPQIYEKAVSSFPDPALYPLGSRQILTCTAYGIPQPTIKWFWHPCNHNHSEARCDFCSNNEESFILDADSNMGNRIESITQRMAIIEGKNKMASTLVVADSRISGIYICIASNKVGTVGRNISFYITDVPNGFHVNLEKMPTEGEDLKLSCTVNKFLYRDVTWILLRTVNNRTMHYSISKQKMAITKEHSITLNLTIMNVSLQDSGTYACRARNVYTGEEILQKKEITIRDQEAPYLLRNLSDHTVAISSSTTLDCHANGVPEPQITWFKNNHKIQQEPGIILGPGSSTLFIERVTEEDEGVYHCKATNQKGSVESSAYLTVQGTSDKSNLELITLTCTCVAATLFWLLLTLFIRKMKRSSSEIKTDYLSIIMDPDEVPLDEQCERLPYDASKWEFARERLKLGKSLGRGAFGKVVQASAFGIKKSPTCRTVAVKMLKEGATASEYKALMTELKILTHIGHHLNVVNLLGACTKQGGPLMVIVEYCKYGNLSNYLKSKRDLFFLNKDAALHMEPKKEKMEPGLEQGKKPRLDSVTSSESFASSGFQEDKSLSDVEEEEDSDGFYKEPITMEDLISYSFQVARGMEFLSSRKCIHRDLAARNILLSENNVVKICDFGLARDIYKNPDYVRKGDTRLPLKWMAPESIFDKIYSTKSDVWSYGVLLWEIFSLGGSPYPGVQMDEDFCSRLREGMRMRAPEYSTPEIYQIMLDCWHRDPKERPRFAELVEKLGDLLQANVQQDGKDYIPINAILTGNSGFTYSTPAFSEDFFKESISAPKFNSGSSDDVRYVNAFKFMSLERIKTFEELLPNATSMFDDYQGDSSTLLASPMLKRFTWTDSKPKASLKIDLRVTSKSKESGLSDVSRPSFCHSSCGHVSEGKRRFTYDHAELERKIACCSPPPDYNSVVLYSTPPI
The test system of a further series is LU99A. Kind of series: cells. As to conditions: Homo sapiens, LU-99A, 72 h.
A further series relates to wild-type MCF10A cells. In words: Growth of wild-type MCF10A cells. Format: cell-based.
The subject of the next series is JAR. In words: cells. As to conditions: Homo sapiens, 72 h.
Another series has as its system PA-1. In words: cells. Particulars: Homo sapiens, PA-1, 72 h.
A further series concerns WT iFGFR1 MCF10A cells. Kind of series: iFGFR1-dependent MCF10A proliferation. Particulars: Homo sapiens, MCF-10A, 48 h.
For another series, the system named is G-402. In words: cells. Particulars: Homo sapiens, G-402, 72 h.
Series [4] relates to iFGFR1-activated MCF10A cells. In words: 3D Matrigel culture morphogenesis. Format: cell-based. Particulars: 3D culture.
A further series deals with R082-W-1. Kind of series: cells. As to conditions: Homo sapiens, 72 h.
In series [5] the test system is SBC-3. Kind of series: Survival pathways immunoblot. As to conditions: 200 nM, 6 hours.
For series [6], the system named is SNU-16. Kind of series: Pro-survival signaling. As to conditions: 200 nM, 6 hours.
The test system of another series is G-401. Kind of series: cells. Particulars: Homo sapiens, G-401, 72 h.
In another series the test system is NCI-H1703. Kind of series: cells. As to conditions: Homo sapiens, NCI-H1703, 72 h.
The test system of series [7] is A2780. Kind of series: cells. As to conditions: Homo sapiens, A2780, 72 h.
Another series has as its system KATO-III. Kind of series: Pro-survival signaling. As to conditions: 200 nM, 6 hours.
The next series deals with RD-ES. Kind of series: cells. As to conditions: Homo sapiens, 72 h.
Another series deals with FGFR1 (Homo sapiens, UniProt P11362). As to conditions: ref Kammasud et al., 2007; cited from earlier work.
Chain of FGFR1 (P11362 22-822): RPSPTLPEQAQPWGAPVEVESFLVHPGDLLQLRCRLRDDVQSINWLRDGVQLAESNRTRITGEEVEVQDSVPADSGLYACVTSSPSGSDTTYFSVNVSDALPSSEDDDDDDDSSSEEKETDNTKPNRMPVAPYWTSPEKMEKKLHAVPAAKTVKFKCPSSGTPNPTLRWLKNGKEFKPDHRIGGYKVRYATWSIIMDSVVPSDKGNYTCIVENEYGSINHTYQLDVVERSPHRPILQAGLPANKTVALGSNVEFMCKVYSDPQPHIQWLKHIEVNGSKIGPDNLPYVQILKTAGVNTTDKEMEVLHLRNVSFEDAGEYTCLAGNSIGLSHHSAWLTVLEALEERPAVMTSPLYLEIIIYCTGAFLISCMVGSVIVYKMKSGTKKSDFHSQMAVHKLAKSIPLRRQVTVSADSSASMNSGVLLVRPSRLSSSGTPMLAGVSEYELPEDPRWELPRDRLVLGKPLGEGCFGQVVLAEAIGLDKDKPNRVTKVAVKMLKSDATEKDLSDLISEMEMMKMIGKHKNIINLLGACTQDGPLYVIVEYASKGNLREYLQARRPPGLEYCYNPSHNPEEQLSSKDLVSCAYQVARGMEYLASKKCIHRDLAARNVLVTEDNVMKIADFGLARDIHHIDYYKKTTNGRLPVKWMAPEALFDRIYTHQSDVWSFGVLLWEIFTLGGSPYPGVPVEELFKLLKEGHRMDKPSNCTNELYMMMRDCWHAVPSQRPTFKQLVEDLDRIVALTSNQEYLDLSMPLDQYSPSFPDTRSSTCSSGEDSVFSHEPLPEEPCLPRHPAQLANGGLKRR
The next series deals with AN3CA cells. Kind of series: Endometrial carcinoma cell proliferation. Particulars: activating FGFR2 mutation; 4 days.
The test system of another series is STS-0421. In words: cells. As to conditions: Homo sapiens, 72 h.
Another series addresses V561M FGFR1 (Homo sapiens, UniProt P11362, V561M). As to conditions: 10 μM, 1 hour drug treatment, HEK293.
The test system of another series is KATO III. In words: cells. As to conditions: Homo sapiens, 72 h.
Another series relates to MFE-296 cells. In words: Endometrial carcinoma cell proliferation. As to conditions: activating FGFR2 mutation; 4 days.

Chain of V561M FGFR1 (P11362 22-822 V561M): as the sequence (P11362 22-822) above, with V540M counted along it

`C=CC(=O)Nc1cccc(CN2C(=O)N(c3c(Cl)c(OC)cc(OC)c3Cl)Cc3cnc(NCCCCN(CC)CC)nc32)c1` [FIIN-1]: the EC50 (usually the concentration that produces a half-maximal response) was greater than 5000 nM with TOV-112D; 230 nM in the series on A2.1; 30 nM in the series with SNU-16 [1]; greater than 10000 nM in the series with wild-type Ba/F3 cells; greater than 5000 nM in the series with JHH-7; 4500 nM with H520. Moreover, the EC50 with FU97 was 650 nM; with RT4, 70 nM; in the series on SBC-3 [3] it was 80 nM; in the series with VM-CUB1, greater than 5000 nM; with LU99A, greater than 5000 nM; in the series with JAR, greater than 5000 nM. The concentration giving a half-maximal response (EC50) with PA-1 is 4600 nM; in the series with WT iFGFR1 MCF10A cells, 2.7 nM; in the series on G-402 it was 1650 nM; in the series with R082-W-1 it was greater than 5000 nM; with G-401 it was 140 nM; in the series on NCI-H1703, greater than 5000 nM. Moreover, the EC50 in the series with A2780 [7] was 220 nM; in the series on RD-ES, 2300 nM. Moreover, the “effect on cell survival and survival pathways” value in the series on A2780 [2] and in the series on SBC-3 [5] was “inhibited” throughout. The “sensitivity in cell proliferation assay” value in the series on Hec-1B cells is “not sensitive”. Moreover, the IC50 (usually the point on the concentration scale where inhibition reaches its midpoint) against FLT1 was 661 nM. Further, in the series with wild-type MCF10A cells, the “effect on growth of wild-type MCF10A cells” value is “neither FIIN-1 nor PD173074 affected the growth”. In addition, the “effect on abnormal morphogenesis induced by iFGFR1 activation” value in [4] (20 nM) is “prevented”. The “effect on pro-survival Akt and Erk1/2 pathways” value in the series with SNU-16 [6] and in the series with KATO-III was “potently suppressed” throughout.

Regarding `COc1cc(OC)cc(-c2ccc3c(c2)NC(=O)/C3=C\c2[nH]c(C)c(CCC(=O)O)c2C)c1` [NP603], the IC50 at FGFR1 was 400 nM.

As to `CCN(CC)CCCCNc1ncc2cc(-c3cc(OC)cc(OC)c3)c(NC(=O)NC(C)(C)C)nc2n1` [PD173074, reference compound], the EC50 with TOV-112D was greater than 5000 nM; in the series with A2.1, 340 nM; with SNU-16 [1] it was 120 nM; with JHH-7, greater than 5000 nM; with H520, greater than 5000 nM; in the series on FU97, 1160 nM. In addition, the EC50 in the series on RT4 was 50 nM; in the series on STS-0421, 120 nM; in the series on SBC-3 [3], 320 nM; in the series on VM-CUB1 it was greater than 5000 nM; with LU99A, 3000 nM; in the series on JAR, greater than 5000 nM. Further, the EC50 is greater than 5000 nM with PA-1; 2480 nM in the series on G-402; 2500 nM in the series on R082-W-1; 22 nM in the series with KATO III; 210 nM in the series with G-401; greater than 5000 nM with NCI-H1703. The EC50 is 820 nM in the series with A2780 [7] and greater than 5000 nM in the series on RD-ES. Also, the “EC50 (sensitivity in cell proliferation assay)” value in the series on AN3CA cells and in the series on MFE-296 cells was “sub-micromolar” throughout. In addition, in the series on Hec-1B cells, the “sensitivity in cell proliferation assay” value was “not sensitive”. In addition, in the series on wild-type MCF10A cells, the “effect on growth of wild-type MCF10A cells” value was “neither FIIN-1 nor PD173074 affected the growth”. Moreover, the “effect on abnormal morphogenesis induced by iFGFR1 activation” value in series [4] (1 μM) was “prevented”. The “inhibition of autophosphorylation of FGFR1-V561M” value against V561M FGFR1 is listed as “incapable of inhibiting”.
